{"source": "paper PMC5839340", "about": "(Biochemistry, 2018)", "key": {"[1]": {"target": "Hsc70 (Mus musculus, UniProt P63017)", "sequence (P63017 5-554)": "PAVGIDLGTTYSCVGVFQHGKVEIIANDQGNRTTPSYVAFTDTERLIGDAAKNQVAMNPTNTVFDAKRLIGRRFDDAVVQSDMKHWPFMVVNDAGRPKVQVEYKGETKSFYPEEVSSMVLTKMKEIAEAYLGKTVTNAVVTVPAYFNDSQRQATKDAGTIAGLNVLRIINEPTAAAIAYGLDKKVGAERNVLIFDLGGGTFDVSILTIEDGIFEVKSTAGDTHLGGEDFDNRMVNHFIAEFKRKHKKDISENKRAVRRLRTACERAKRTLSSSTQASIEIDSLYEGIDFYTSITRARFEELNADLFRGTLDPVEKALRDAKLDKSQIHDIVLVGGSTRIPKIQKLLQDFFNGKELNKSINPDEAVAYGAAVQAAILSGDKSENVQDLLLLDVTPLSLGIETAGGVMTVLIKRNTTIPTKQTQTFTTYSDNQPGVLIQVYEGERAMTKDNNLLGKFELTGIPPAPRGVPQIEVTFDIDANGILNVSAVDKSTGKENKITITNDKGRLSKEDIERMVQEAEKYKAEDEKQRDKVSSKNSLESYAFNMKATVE", "assay": "DRaCALA with [α-32P]ATP", "format": "binding"}, "[2]": {"target": "Hsc70 C17W (Mus musculus, UniProt P63017, C17W)", "sequence (P63017 5-554 C17W)": "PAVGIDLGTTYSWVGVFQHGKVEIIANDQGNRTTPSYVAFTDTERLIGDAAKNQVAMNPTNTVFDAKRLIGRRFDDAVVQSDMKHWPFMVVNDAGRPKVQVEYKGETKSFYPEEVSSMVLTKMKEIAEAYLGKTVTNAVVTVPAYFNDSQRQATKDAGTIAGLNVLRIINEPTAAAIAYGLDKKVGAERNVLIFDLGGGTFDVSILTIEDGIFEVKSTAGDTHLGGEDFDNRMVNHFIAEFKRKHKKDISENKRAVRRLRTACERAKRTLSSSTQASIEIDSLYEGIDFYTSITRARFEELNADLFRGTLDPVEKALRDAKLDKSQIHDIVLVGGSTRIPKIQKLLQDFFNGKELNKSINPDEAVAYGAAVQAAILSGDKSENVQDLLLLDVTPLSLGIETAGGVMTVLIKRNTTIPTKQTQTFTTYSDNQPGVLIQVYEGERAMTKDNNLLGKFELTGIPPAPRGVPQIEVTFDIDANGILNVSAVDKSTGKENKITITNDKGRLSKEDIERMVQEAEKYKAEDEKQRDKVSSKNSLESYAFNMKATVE", "assay": "DRaCALA with [α-32P]ATP", "format": "binding"}}, "data": [{"compound": "Nc1ncnc2c1ncn2[C@@H]1O[C@H](COP(=O)(O)OP(=O)(O)OP(=O)(O)O)[C@@H](O)[C@H]1O", "note": "[ATP]", "values": [{"measurement": "Kd", "setting": "[1]", "result": "0.21 ± 0.04", "unit": "µM"}, {"measurement": "Kd", "setting": "[2]", "result": "0.16 ± 0.06", "unit": "µM"}]}]}
